According to patent publication US20240208940A1, “SMALL-MOLECULE INHIBITORS FOR BETA-CATENIN/BCELL LYMPHOMA 9 PROTEIN-PROTEIN INTERACTION” (H. LEE MOFFITT CANCER CENTER AND RESEARCH INSTITUTE, INC., priority 2021, published 2024):
pIC50, pKi: −log10 of the molar value. Counter-ions that a name gives are not always drawn.

Biological target: β-catenin/BCL9 PPI (Homo sapiens (Human), UniProt P35222)
Assay: AlphaScreen competitive inhibition assay of β-catenin/BCL9 PPI
Type: binding
Conditions: mean ± standard deviation (n = 3); for pKi: derived from IC50, read-out: Ki ± SD
Method: AlphaScreen Assays of β-Catenin and BCL9 Interaction. Experiments were performed in white opaque 384-well plates from PerkinElmer (Waltham, MA), and the samples were read on a Biotek Synergy 2 plate reader (Winooski, VT) with excitation at 680 nm and emission at 570 nm. The standard AlphaScreen protocol was used with a sensitivity setting of 200. All dilutions were made in 1× assay buffer containing 25 mM Hepes (pH 7.4), 100 mM NaCl, 0.01% Triton X-100 and 0.1% BSA to minimize nonspecific interactions. For the competitive inhibition assays of β-catenin/BCL9 PPI, the negative control (equivalent to 0% inhibition) refers to 5.0 nM biotinylated BCL9, 50 nM His6-tagged β-catenin, and 10 μg/mL donor and acceptor beads in a final volume of 25 μL assay buffer, but no tested inhibitor present. The positive control (equivalent to 100% inhibition) refers to 5.0 nM biotinylated BCL9 and 10 μg/mL donor and acceptor beads in a final volume of 25 μL assay buffer.
For the β-catenin/BCL9 assay, 5 nM biotinylated BCL9 and 50 nM His6-tagged β-catenin were incubated in assay buffer for 30 min. Different concentrations of the tested inhibitor were added and incubated in 20 μL assay buffer for another 1 h. All of the assay plates were covered and gently mixed on an orbital shaker. The donor and acceptor beads were then added to the plates to a final concentration of 10 μg/mL in 25 μL assay buffer. The mixture was incubated for 1 h before detection. The IC50 value was determined by nonlinear least-square analysis of GraphPad Prism 8.0. The Ki values were derived from the IC50 values using a method reported by Wang and coworkers.^65 The equation used is Ki=[I]50/([L]50/Kd+[P]0/Kd+1) (Where [I]50 denotes the concentration of the free inhibitor at 50% inhibition, [L]50 is the concentration of the free labeled ligand at 50% inhibition, [P]0 is the concentration of the free protein at 0% inhibition, and Kd is the dissociation constant of the protein-ligand complex). All of the experiments were performed in triplicate and carried out in the presence of 1% DMSO for small-molecule inhibitors. Each compound was assayed at least by three independent experiments. The results were expressed as mean±standard deviation.

β-catenin/BCL9 PPI, sequence (P35222 whole entry): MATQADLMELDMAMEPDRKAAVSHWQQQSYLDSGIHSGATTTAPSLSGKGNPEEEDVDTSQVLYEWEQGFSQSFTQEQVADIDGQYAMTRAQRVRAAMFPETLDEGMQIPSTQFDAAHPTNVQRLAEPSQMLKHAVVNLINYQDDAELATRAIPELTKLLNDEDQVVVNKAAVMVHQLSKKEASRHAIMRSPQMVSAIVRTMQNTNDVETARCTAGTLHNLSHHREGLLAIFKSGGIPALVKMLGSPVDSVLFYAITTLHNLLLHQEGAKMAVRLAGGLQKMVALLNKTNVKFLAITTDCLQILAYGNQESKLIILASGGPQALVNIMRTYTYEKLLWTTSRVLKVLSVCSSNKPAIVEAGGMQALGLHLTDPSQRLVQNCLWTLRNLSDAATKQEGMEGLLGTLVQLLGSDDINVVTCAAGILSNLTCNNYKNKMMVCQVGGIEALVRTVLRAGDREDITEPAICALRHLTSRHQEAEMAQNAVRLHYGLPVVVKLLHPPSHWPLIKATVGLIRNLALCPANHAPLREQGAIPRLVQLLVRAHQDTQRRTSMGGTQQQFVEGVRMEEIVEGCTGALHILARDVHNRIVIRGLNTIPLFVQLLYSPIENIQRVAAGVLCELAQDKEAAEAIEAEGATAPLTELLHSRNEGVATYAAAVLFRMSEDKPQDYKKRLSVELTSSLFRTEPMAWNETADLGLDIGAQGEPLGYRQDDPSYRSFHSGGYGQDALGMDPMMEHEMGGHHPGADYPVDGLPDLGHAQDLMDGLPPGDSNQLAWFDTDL

| SMILES | pKi | pIC50 |
| --- | --- | --- |
| O=C(c1ccc(O[C@H]2CCNC2)c(N2CCC(C(F)(F)F)CC2)c1)N1CCC(Oc2cc(F)cc(N3CCNCC3)c2)CC1 [Compound 26, (S)-(4-(3-fluoro-5-(piperazin-1-yl)phenoxy)piperidin-1-yl)(4-(pyrrolidin-3-yloxy)-3-(4-(trifluoromethyl)piperidin-1-yl)phenyl)methanone dihydrochloride] | ≥ 4.00 | ≥ 4.00 |
| O=C(c1ccc(O[C@H]2CCNC2)c(-c2ccc3[nH]ncc3c2)c1)N1CCC(Oc2cc(F)cc(N3CCNCC3)c2)CC1 [Compound 14, (S)-(3-(1H-indazol-5-yl)-4-(pyrrolidin-3-yloxy)phenyl)(4-(3-fluoro-5-(piperazin-1-yl)phenoxy)piperidin-1-yl)methanone dihydrochloride] | ≥ 5.00 | ≥ 5.00 |
| CC(C)(C)C1CCC(c2cc(C(=O)N3CCC(Oc4cc(N5CCNCC5)ccc4C(=O)O)CC3)ccc2O[C@H]2CCNC2)CC1 (stereo in doubt) [Compound 40, cis- and trans-(S)-2-((1-(3-(4-(tert-butyl)cyclohexyl)-4-(pyrrolidin-3-yloxy)benzoyl)piperidin-4-yl)oxy)-4-(piperazin-1-yl)benzoic acid dihydrochloride] | ~4.08 | ~4.00 |
| CN(C)C(=O)c1ccc(N2CCNCC2)cc1OC1CCN(C(=O)c2ccc(O[C@H]3CCNC3)c(C3CCC(C(C)(C)C)CC3)c2)CC1 (stereo in doubt) [Compound 43, cis- and trans-(S)-2-((1-(3-(4-(tert-butyl)cyclohexyl)-4-(pyrrolidin-3-yloxy)benzoyl)piperidin-4-yl)oxy)-N,N-dimethyl-4-(piperazin-1-yl)benzamide dihydrochloride] | ~4.09 | ~4.00 |
| CC(C)(C)C1CCC(c2cc(C(=O)N3CCC(Oc4cccc(N5CCNCC5)c4)CC3)ccc2O[C@H]2CCNC2)CC1 (stereo in doubt) [Compound 38, cis and trans-(S)-(3-(4-(tert-butyl)cyclohexyl)-4-(pyrrolidin-3-yloxy)phenyl)(4-(3-(piperazin-1-yl)phenoxy)piperidin-1-yl)methanone dihydrochloride] | ≥ 4.70 | ≥ 4.70 |
| CC(C)(C)C1CCC(c2cc(C(=O)N3CCC(Oc4cc(F)cc(N5CCNCC5)c4)CC3)ccc2O[C@H]2CCNC2)CC1 (stereo in doubt) [Compound 19, cis- and trans-(S)-(3-(4-(tert-butyl)cyclohexyl)-4-(pyrrolidin-3-yloxy)phenyl)(4-(3-fluoro-5-(piperazin-1-yl)phenoxy)piperidin-1-yl)methanone dihydrochloride] | ≥ 5.30 | ≥ 5.30 |
| O=C(c1ccc(O[C@H]2CCNC2)c(-c2ccc(C(F)(F)F)cc2)c1)N1CCC(Oc2cc(F)cc(N3CCNCC3)c2)CC1 [Compound 9, (S)-(4-(3-fluoro-5-(piperazin-1-yl)phenoxy)piperidin-1-yl)(6-(pyrrolidin-3-yloxy)-4′-(trifluoromethyl)-[1,1′-biphenyl]-3-yl)methanone dihydrochloride] | ≥ 4.70 | ≥ 4.70 |
| O=C(c1ccc(O[C@H]2CCNC2)c(C2CCN(C(=O)C3CC3)CC2)c1)N1CCC(Oc2cc(F)cc(N3CCNCC3)c2)CC1 [Compound 21, (S)-(3-(1-(cyclopropanecarbonyl)piperidin-4-yl)-4-(pyrrolidin-3-yloxy)phenyl)(4-(3-fluoro-5-(piperazin-1-yl)phenoxy)piperidin-1-yl)methanone dihydrochloride] | ≥ 4.30 | ≥ 4.30 |
| CC(O)C(=O)N1CCC(c2cc(C(=O)N3CCC(Oc4cc(F)cc(N5CCNCC5)c4)CC3)ccc2O[C@H]2CCNC2)CC1 (stereo partly drawn) [Compound 23, 1-(4-(5-(4-(3-fluoro-5-(piperazin-1-yl)phenoxy)piperidine-1-carbonyl)-2-(((S)-pyrrolidin-3-yl)oxy)phenyl)piperidin-1-yl)-2-hydroxypropan-1-one dihydrochloride] | ≥ 4.30 | ≥ 4.30 |
| O=C(c1ccc(O[C@H]2CCNC2)c(C2CCCCC2)c1)N1CCC(Oc2cc(F)cc(N3CCC4(CCNC4)C3)c2)CC1 (stereo partly drawn) [Compound 5, (3-cyclohexyl-4-(((S)-pyrrolidin-3-yl)oxy)phenyl)(4-(3-fluoro-5-(2,7-diazaspiro[4.4]nonan-2-yl)phenoxy)piperidin-1-yl)methanone ditrifluoroacetic acid] | ≥ 4.40 | ≥ 4.40 |
| CC(C)(C)C1CCC(c2cc(C(=O)N3CCC(Oc4cc(N5CCNCC5)cc(F)c4F)CC3)ccc2O[C@H]2CCNC2)CC1 (stereo in doubt) [Compound 35, cis- and trans-(S)-(3-(4-(tert-butyl)cyclohexyl)-4-(pyrrolidin-3-yloxy)phenyl)(4-(2,3-difluoro-5-(piperazin-1-yl)phenoxy)piperidin-1-yl)methanone dihydrochloride] | ≥ 5.30 | ≥ 5.30 |
| CC(C)(C)c1ccc(-c2cc(C(=O)N3CCC(Oc4cc(F)cc(N5CCNCC5)c4)CC3)ccc2O[C@H]2CCNC2)cc1 [Compound 10, (S)-(4′-(tert-butyl)-6-(pyrrolidin-3-yloxy)-[1,1′-biphenyl]-3-yl)(4-(3-fluoro-5-(piperazin-1-yl)phenoxy)piperidin-1-yl)methanone dihydrochloride] | ≥ 4.70 | ≥ 4.70 |
| Cn1cc(-c2cc(C(=O)N3CCC(Oc4cc(F)cc(N5CCNCC5)c4)CC3)ccc2O[C@H]2CCNC2)cn1 [Compound 13, (S)-(4-(3-fluoro-5-(piperazin-1-yl)phenoxy)piperidin-1-yl)(3-(1-methyl-1H-pyrazol-4-yl)-4-(pyrrolidin-3-yloxy)phenyl)methanone dihydrochloride] | ≥ 5.00 | ≥ 5.00 |
| CC(C)(C)[C@H]1CC[C@H](c2cc(C(=O)N3CCC(Oc4cc(N5CCNCC5)ccc4C#N)CC3)ccc2O[C@H]2CCNC2)CC1 [Compound 45] | ≥ 5.40 | ≥ 5.40 |
| CC(C)(C)C1CCC(c2cc(C(=O)N3CCC(Oc4cc(N5CCNCC5)ccc4C(N)=O)CC3)ccc2O[C@H]2CCNC2)CC1 (stereo in doubt) [Compound 41, cis- and trans-(S)-2-((1-(3-(4-(tert-butyl)cyclohexyl)-4-(pyrrolidin-3-yloxy)benzoyl)piperidin-4-yl)oxy)-4-(piperazin-1-yl)benzamide dihydrochloride] | ≥ 4.70 | ≥ 4.70 |
| O=C(c1ccc(O[C@H]2CCNC2)c(C2CCCCC2)c1)N1CCC(Oc2cc(F)cc(N3CC4(CCNCC4)C3)c2)CC1 [Compound 2, (S)-(3-cyclohexyl-4-(pyrrolidin-3-yloxy)phenyl)(4-(3-fluoro-5-(2,7-diazaspiro[3.5]nonan-2-yl)phenoxy)piperidin-1-yl)methanone ditrifluoroacetic acid] | < 4.08 | < 4.00 |
| CC(C)(C)C1CCC(c2cc(C(=O)N3CCC(Oc4cc(C#N)cc(N5CCNCC5)c4)CC3)ccc2O[C@H]2CCNC2)CC1 (stereo in doubt) [Compound 32, cis- and trans-(S)-3-((1-(3-(4-(tert-butyl)cyclohexyl)-4-(pyrrolidin-3-yloxy)benzoyl)piperidin-4-yl)oxy)-5-(piperazin-1-yl)benzonitrile dihydrochloride] | ≥ 5.00 | ≥ 5.00 |
